According to US10004701B2, “Methods and compositions for treating infection” (UNIVERSITY OF ROCHESTER, priority 2012, dated 2018):
Where a name gives a salt, the structure may show the parent alone. Read-outs that look alike come from different tables or passages of the source.

How the values were obtained:
Test in all cases: AK assay 384-well format, Prestwick library screening
[1] = system: S. aureus strain USA300-0114; format: cell-based, Staphylococcus aureus; details: 50 μM final drug concentration; for fold induction at 50 µM: Staphylococcus aureus, USA300, 3 h
[2] = system: E. coli; format: cell-based, Escherichia coli; details: 50 μM final drug concentration; for fold induction at 50 µM: Escherichia coli, 3 h
[3] = system: E. faecium; format: cell-based, Enterococcus faecium; details: 50 μM final drug concentration; for fold induction at 50 µM: Enterococcus faecium, 3 h
[4] = system: K. pneumoniae; format: cell-based, Klebsiella pneumoniae; details: 50 μM final drug concentration; for fold induction at 50 µM: Klebsiella pneumoniae, 3 h
[5] = system: E. cloacae; format: cell-based, Enterobacter cloacae; details: 50 μM final drug concentration; for fold induction at 50 µM: Enterobacter cloacae, 3 h
[6] = system: A. baumannii strain 98-37-09; format: cell-based, Acinetobacter baumannii; details: 50 μM final drug concentration; for fold induction at 50 µM: Acinetobacter baumannii, 983709, 3 h
[7] = system: P. aeruginosa; format: cell-based, Pseudomonas aeruginosa; details: 50 μM final drug concentration; for fold induction at 50 µM: Pseudomonas aeruginosa, 3 h
[8] = 384-well format, cutoff for positive-scoring molecules 3-fold increase, read-out: AK-based Prestwick Library Screening Results, S. aureus (increase in extracellular AK activity)
[9] = 384-well format, cutoff for positive-scoring molecules 3-fold increase, read-out: AK-based Prestwick Library Screening Results, E. coli (increase in extracellular AK activity)
[10] = 384-well format, cutoff for positive-scoring molecules 3-fold increase, read-out: AK-based Prestwick Library Screening Results, E. faecium (increase in extracellular AK activity)
[11] = 384-well format, cutoff for positive-scoring molecules 3-fold increase, read-out: AK-based Prestwick Library Screening Results, K. pneumoniae (increase in extracellular AK activity)
[12] = 384-well format, cutoff for positive-scoring molecules 3-fold increase, read-out: AK-based Prestwick Library Screening Results, E. cloacae (increase in extracellular AK activity)
[13] = 384-well format, cutoff for positive-scoring molecules 3-fold increase, read-out: AK-based Prestwick Library Screening Results, A. baumannii (increase in extracellular AK activity)
[14] = 384-well format, cutoff for positive-scoring molecules 3-fold increase, read-out: AK-based Prestwick Library Screening Results, P. aeruginosa (increase in extracellular AK activity)

CCCCCN(CCCCC)C(=O)C(CCC(=O)O)NC(=O)c1ccc(Cl)c(Cl)c1 (stereo not drawn) [Lorglumide sodium salt]
fold induction at 50 µM ([1]; planktonic, cutoff for positive-scoring molecules 3-fold increase, read-out: AK-based Prestwick Library Screening Results, S. aureus (fold increase in extracellular AK activity)): 0.3
fold induction at 50 µM ([2]; planktonic, cutoff for positive-scoring molecules 3-fold increase, read-out: AK-based Prestwick Library Screening Results, E. coli (fold increase in extracellular AK activity)): 0.9
fold induction at 50 µM ([3]; planktonic, cutoff for positive-scoring molecules 3-fold increase, read-out: AK-based Prestwick Library Screening Results, E. faecium (fold increase in extracellular AK activity)): 1
fold induction at 50 µM ([4]; planktonic, cutoff for positive-scoring molecules 3-fold increase, read-out: AK-based Prestwick Library Screening Results, K. pneumoniae (fold increase in extracellular AK activity)): 0.7
fold induction at 50 µM ([5]; planktonic, cutoff for positive-scoring molecules 3-fold increase, read-out: AK-based Prestwick Library Screening Results, E. cloacae (fold increase in extracellular AK activity)): 1.3
fold induction at 50 µM ([6]; planktonic, cutoff for positive-scoring molecules 3-fold increase, read-out: AK-based Prestwick Library Screening Results, A. baumannii (fold increase in extracellular AK activity)): 0.8
fold induction at 50 µM ([7]; planktonic, cutoff for positive-scoring molecules 3-fold increase, read-out: AK-based Prestwick Library Screening Results, P. aeruginosa (fold increase in extracellular AK activity)): 0.9

CC[C@H](C)C(=O)O[C@H]1C[C@@H](C)C=C2C=C[C@H](C)[C@H](CC[C@@H]3C[C@@H](O)CC(=O)O3)[C@H]21 [Lovastatin]
fold induction at 50 µM ([1]; planktonic S. aureus, cutoff for positive-scoring molecules 3-fold increase, read-out: AK-based Prestwick Library Screening Results, S. aureus (increase in extracellular AK activity)): 0.3
fold induction at 50 µM ([2]; planktonic E. coli, cutoff for positive-scoring molecules 3-fold increase, read-out: AK-based Prestwick Library Screening Results, E. coli (increase in extracellular AK activity)): 1
fold induction at 50 µM ([3]; planktonic E. faecium, cutoff for positive-scoring molecules 3-fold increase, read-out: AK-based Prestwick Library Screening Results, E. faecium (increase in extracellular AK activity)): 1
fold induction at 50 µM ([4]; planktonic K. pneumoniae, cutoff for positive-scoring molecules 3-fold increase, read-out: AK-based Prestwick Library Screening Results, K. pneumoniae (increase in extracellular AK activity)): 0.8
fold induction at 50 µM ([5]; planktonic E. cloacae, cutoff for positive-scoring molecules 3-fold increase, read-out: AK-based Prestwick Library Screening Results, E. cloacae (increase in extracellular AK activity)): 1.2
fold induction at 50 µM ([6]; planktonic A. baumannii, cutoff for positive-scoring molecules 3-fold increase, read-out: AK-based Prestwick Library Screening Results, A. baumannii (increase in extracellular AK activity)): 1
fold induction at 50 µM ([7]; planktonic P. aeruginosa, cutoff for positive-scoring molecules 3-fold increase, read-out: AK-based Prestwick Library Screening Results, P. aeruginosa (increase in extracellular AK activity)): 0.8

CN1CCN(C2=Nc3ccccc3Oc3ccc(Cl)cc32)CC1 [Loxapine succinate]
fold induction at 50 µM ([1]; planktonic S. aureus, 384-well, cutoff for positive-scoring molecules 3-fold increase, read-out: AK-based Prestwick Library Screening Results: S. aureus (increase in extracellular AK activity)): 1.1
fold induction at 50 µM ([2]; planktonic E. coli, 384-well, cutoff for positive-scoring molecules 3-fold increase, read-out: AK-based Prestwick Library Screening Results: E. coli (increase in extracellular AK activity)): 1
fold induction at 50 µM ([3]; planktonic E. faecium, 384-well, cutoff for positive-scoring molecules 3-fold increase, read-out: AK-based Prestwick Library Screening Results: E. faecium (increase in extracellular AK activity)): 0.9
fold induction at 50 µM ([4]; planktonic K. pneumoniae, 384-well, cutoff for positive-scoring molecules 3-fold increase, read-out: AK-based Prestwick Library Screening Results: K. pneumoniae (increase in extracellular AK activity)): 1
fold induction at 50 µM ([5]; planktonic E. cloacae, 384-well, cutoff for positive-scoring molecules 3-fold increase, read-out: AK-based Prestwick Library Screening Results: E. cloacae (increase in extracellular AK activity)): 1.3
fold induction at 50 µM ([6]; planktonic A. baumannii, 384-well, cutoff for positive-scoring molecules 3-fold increase, read-out: AK-based Prestwick Library Screening Results: A. baumannii (increase in extracellular AK activity)): 1
fold induction at 50 µM ([7]; planktonic P. aeruginosa, 384-well, cutoff for positive-scoring molecules 3-fold increase, read-out: AK-based Prestwick Library Screening Results: P. aeruginosa (increase in extracellular AK activity)): 0.9

COC1=C[C@@H]2C3=C([C@@H]2C1=O)[C@@H](NC(C)=O)CCc1cc(OC)c(OC)c(OC)c13 [Lumicolchicine gamma]
AK-based Prestwick Library Screening Results, S. aureus (fold increase in extracellular AK activity) ([1]; planktonic, […]): 0.9
AK-based Prestwick Library Screening Results, E. coli (fold increase in extracellular AK activity) ([2]; planktonic, […]): 1.1
AK-based Prestwick Library Screening Results, E. faecium (fold increase in extracellular AK activity) ([3]; planktonic, […]): 1.0
AK-based Prestwick Library Screening Results, K. pneumoniae (fold increase in extracellular AK activity) ([4]; planktonic, […]): 1.0
AK-based Prestwick Library Screening Results, E. cloacae (fold increase in extracellular AK activity) ([5]; planktonic, […]): 1.4
AK-based Prestwick Library Screening Results, A. baumannii (fold increase in extracellular AK activity) ([6]; planktonic, […]): 1.2
AK-based Prestwick Library Screening Results, P. aeruginosa (fold increase in extracellular AK activity) ([7]; planktonic, […]): 1.1

O=c1cc(-c2ccc(O)c(O)c2)oc2cc(O)cc(O)c12 [Luteolin]
fold induction at 50 µM ([1]; cutoff for positive-scoring molecules 3-fold increase, read-out: AK-based Prestwick Library Screening Results, S. aureus (fold increase in extracellular AK activity)): 0.2
fold induction at 50 µM ([2]; cutoff for positive-scoring molecules 3-fold increase, read-out: AK-based Prestwick Library Screening Results, E. coli (fold increase in extracellular AK activity)): 0.4
fold induction at 50 µM ([3]; cutoff for positive-scoring molecules 3-fold increase, read-out: AK-based Prestwick Library Screening Results, E. faecium (fold increase in extracellular AK activity)): 0.5
fold induction at 50 µM ([4]; cutoff for positive-scoring molecules 3-fold increase, read-out: AK-based Prestwick Library Screening Results, K. pneumoniae (fold increase in extracellular AK activity)): 0.5
fold induction at 50 µM ([5]; cutoff for positive-scoring molecules 3-fold increase, read-out: AK-based Prestwick Library Screening Results, E. cloacae (fold increase in extracellular AK activity)): 1.6
fold induction at 50 µM ([6]; cutoff for positive-scoring molecules 3-fold increase, read-out: AK-based Prestwick Library Screening Results, A. baumannii (fold increase in extracellular AK activity)): 0.3
fold induction at 50 µM ([7]; cutoff for positive-scoring molecules 3-fold increase, read-out: AK-based Prestwick Library Screening Results, P. aeruginosa (fold increase in extracellular AK activity)): 0.5

CN(C)[C@@H]1C(O)=C(C(=O)NCNCCCC[C@H](N)C(=O)O)C(=O)[C@@]2(O)C(O)=C3C(=O)c4c(O)cccc4[C@@](C)(O)[C@H]3C[C@@H]12 [Lymecycline]
fold induction at 50 µM ([1]; planktonic S. aureus, […], read-out: AK-based Prestwick library screening result, S. aureus (fold increase in extracellular AK activity)): 0.7
fold induction at 50 µM ([2]; planktonic E. coli, […], read-out: AK-based Prestwick library screening result, E. coli (fold increase in extracellular AK activity)): 0.8
fold induction at 50 µM ([3]; planktonic E. faecium, […], read-out: AK-based Prestwick library screening result, E. faecium (fold increase in extracellular AK activity)): 1
fold induction at 50 µM ([4]; planktonic K. pneumoniae, […], read-out: AK-based Prestwick library screening result, K. pneumoniae (fold increase in extracellular AK activity)): 0.7
fold induction at 50 µM ([5]; planktonic E. cloacae, […], read-out: AK-based Prestwick library screening result, E. cloacae (fold increase in extracellular AK activity)): 1.2
fold induction at 50 µM ([6]; planktonic A. baumannii, […], read-out: AK-based Prestwick library screening result, A. baumannii (fold increase in extracellular AK activity)): 0.8
fold induction at 50 µM ([7]; planktonic P. aeruginosa, […], read-out: AK-based Prestwick library screening result, P. aeruginosa (fold increase in extracellular AK activity)): 0.7

C#C[C@]1(O)CC[C@H]2[C@@H]3CCC4=CCCC[C@@H]4[C@H]3CC[C@@]21C [Lynestrenol]
fold induction at 50 µM [1, 8]: 0.5
fold induction at 50 µM [2, 9]: 0.7
fold induction at 50 µM [3, 10]: 0.9
fold induction at 50 µM [4, 11]: 0.6
fold induction at 50 µM [5, 12]: 0.7
fold induction at 50 µM [6, 13]: 1.4
fold induction at 50 µM [7, 14]: 0.6

CN1C[C@H](CO)C=C2c3cccc4[nH]cc(c34)C[C@H]21 [Lysergol]
AK-based Prestwick Library Screening Results, S. aureus (fold increase in extracellular AK activity) ([1]; planktonic, […]): 0.9
AK-based Prestwick Library Screening Results, E. coli (fold increase in extracellular AK activity) ([2]; planktonic, […]): 1.1
AK-based Prestwick Library Screening Results, E. faecium (fold increase in extracellular AK activity) ([3]; planktonic, […]): 0.9
AK-based Prestwick Library Screening Results, K. pneumoniae (fold increase in extracellular AK activity) ([4]; planktonic, […]): 0.8
AK-based Prestwick Library Screening Results, E. cloacae (fold increase in extracellular AK activity) ([5]; planktonic, […]): 1.6
AK-based Prestwick Library Screening Results, A. baumannii (fold increase in extracellular AK activity) ([6]; planktonic, […]): 1.0
AK-based Prestwick Library Screening Results, P. aeruginosa (fold increase in extracellular AK activity) ([7]; planktonic, […]): 1.1

NCc1ccc(S(N)(=O)=O)cc1 [Mafenide hydrochloride]
fold induction at 50 µM [1, 8]: 0.6
fold induction at 50 µM [2, 9]: 0.6
fold induction at 50 µM [3, 10]: 1.2
fold induction at 50 µM [4, 11]: 0.5
fold induction at 50 µM [5, 12]: 0.6
fold induction at 50 µM [6, 13]: 0.5
fold induction at 50 µM [7, 14]: 0.5
